Assay results reported in EP0229011A1, “Trisubstituted triazoles” (CIBA-GEIGY AG, priority 1986, dated 1987).

Legend:
[1] = system: Elektroschock-induzierte Konvulsionen; test: Protection against electroshock-induced convulsions (rat); type: in vivo; settings: po, Ratte, read-out: ED₅₀
Source text: (§1) Die neuen Verbindungen besitzen wertvolle pharmakologische Eigenschaften, insbesondere eine ausgeprägte antikonvulsive Wirksamkeit mit neuartigem Wirkungsspektrum. Die ausgezeichnete antikonvulsive Wirksamkeit der erfindungsgemäss bereitgestellten Verbindungen zeigt sich insbesondere an Primaten. […] Das neuartige Wirkungsspektrum der erfindungsgemässen Verbindungen kann beispielsweise durch ihr Verhalten in den nachstehenden pharmakologischen und biochemischen Epilepsiemodellen charakterisiert werden: • 1) Schutzwirkung gegen Elektroschock-induzierte Konvulsionen (Maus, Ratte): deutliche Aktivität in Dosen ab etwa 30 mg/kg p.o., für z.B. 5-Amino-1-(4-hexyl)-1M-1,2,3-triazol-4-carboxamid ED₅₀ = 100 mg/kg p.o. (Maus) bzw. […] Wirkung auf die GABA-Neuro-transmission und kein nachweisbarer Einfluss auf den GABA-Kata-bolismus; • 6) Kindling-Epilepsiemodell (Ratte): die Entwicklung sowohl der Nachentladung als auch der Symptomatologie wird stark verlangsamt.

[2] = system: experimentellen Strychninkrampf; test: Protection against experimental strychnine convulsions; type: in vivo, Maus; settings: Mus musculus, po, read-out: ED₅₀
Source text: as §1

[3] = system: Elektroschock-induzierte Konvulsionen; test: Protection against electroshock-induced convulsions (mouse); type: in vivo; settings: po, Maus, read-out: ED₅₀
Source text: as §1

Metrazol-Antagonismus = test: Metrazol antagonism in the mouse; type: in vivo; settings: po, Maus, read-out: ED₅₀
Source text: as §1

[4] = system: Picrotoxin-induzierte Konvulsionen; test: Protection against picrotoxin-induced convulsions; type: in vivo; settings: Maus, doses up to and including 300 mg/kg p.o.
Source text: as §1

[5] = system: durch Aluminiumoxidimplantation erzeugten fokalen Konvulsionen; test: Focal convulsions produced by aluminium oxide implantation in the rhesus monkey; type: in vivo, Rhesusaffen; settings: daily doses of 50 mg/kg p.o., over the whole 15-day treatment
Source text: as §1

## CCCC(CC)n1nnc(C(N)=O)c1N (stereo not shown) [5-Amino-1-(4-hexyl)-1H-1,2,3-triazol-4-carboxamid]
[1]
  ED50: 50 mg/kg
[2]
  ED50: 300 mg/kg
[3]
  ED50: 100 mg/kg
Metrazol-Antagonismus
  ED50: 210 mg/kg
[4]
  Schutzwirkung gegen Picrotoxin-induzierte Konvulsionen: keine Wirkung feststellbar

## CCCC(CCC)n1nnc(C(N)=O)c1N [Beispiel 1, 5-Amino-1-(4-heptyl)-1H-1,2,3-triazol-4-carboxamid]
[5]
  Anzahl der fokalen Konvulsionen: starke Abnahme
  Intensität der fokalen Konvulsionen: starke Abnahme
